From patent US6737383B1, “Herbicidal oxadiazolidines” (priority 1999, dated 2004)

Assays:
blackgrass = assay: Test B pre/postemergence blackgrass; format: in vivo, Alopecurus myosuroides
How it was run: (§1)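 Herbicidal effect was estimated by eye on a ten-point control scale after plants spent twelve to sixteen days in a greenhouse following soil or foliar treatment. Foliar sprays targeted plants at one to four leaves; all doses were formulated in a non-phytotoxic solvent with surfactant.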

surinam grass = assay: Test B pre/postemergence surinam grass; format: in vivo, Brachiaria decumbens
How it was run: as §1

cocklebur = assay: Test B pre/postemergence cocklebur; format: in vivo, Xanthium strumarium
How it was run: as §1

corn = assay: Test B pre/postemergence corn; format: in vivo, Zea mays
How it was run: as §1

crabgrass = assay: Test B pre/postemergence crabgrass; format: in vivo, Digitaria sanguinalis
How it was run: as §1

giant foxtail = assay: Test B pre/postemergence giant foxtail; format: in vivo, Setaria faberii
How it was run: as §1

morningglory = assay: Test B pre/postemergence morningglory; format: in vivo, Ipomoea hederacea
How it was run: as §1

rape = assay: Test B pre/postemergence rape; format: in vivo, Brassica napus
How it was run: as §1

soybean = assay: Test B pre/postemergence soybean; format: in vivo, Glycine max
How it was run: as §1

sugar beet = assay: Test B pre/postemergence sugar beet; format: in vivo, Beta vulgaris
How it was run: as §1

velvetleaf = assay: Test B pre/postemergence velvetleaf; format: in vivo, Abutilon theophrasti
How it was run: as §1

wheat = assay: Test B pre/postemergence wheat; format: in vivo, Triticum aestivum
How it was run: as §1

wild oat = assay: Test B pre/postemergence wild oat; format: in vivo, Avena fatua
How it was run: as §1

purple nutsedge = assay: Test B pre/postemergence purple nutsedge; format: in vivo, Cyperus rotundus
How it was run: as §1

smallflower flatsedge = assay: Test B flood test smallflower flatsedge; format: in vivo, Cyperus difformis
How it was run: (§2)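 Each value is a visual injury score relative to controls, with 10 meaning complete control and 0 no effect. Evaluation took place twelve to sixteen days after the 2-leaf-stage plants were treated and kept in the greenhouse.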

duck salad = assay: Test B flood test duck salad; format: in vivo, Heteranthera limosa
How it was run: as §2

[1] = Postemergence, Rate 62 g/ha, scale 0 to 10, 0 is no effect, 10 is complete control
[2] = Postemergence, Rate 125 g/ha, scale of 0 to 10 where 0 is no effect and 10 is complete control
[3] = Preemergence, Rate 125 g/ha, scale of 0 to 10 where 0 is no effect and 10 is complete control
[4] = Preemergence, Rate 250 g/ha, scale 0 (no effect) to 10 (complete control)
[5] = Rate 62 g/ha, Preemergence, scale 0 to 10
[6] = Rate 250 g/ha, Postemergence, scale 0 to 10, 0 is no effect, 10 is complete control
[7] = Rate 500 g/ha, Postemergence, scale 0 to 10, 0 is no effect, 10 is complete control
[8] = Rate 500 g/ha, Preemergence, scale 0 to 10 (0 no effect, 10 complete control)
[9] = Pre-emergence, Rate 62 g/ha, scale 0 to 10, 0 is no effect, 10 is complete control
[10] = Rate 125 g/ha, Pre-emergence section (flood test species), scale 0 to 10, 0 no effect, 10 complete control
[11] = Rate 250 g/ha, Pre-emergence (flood test species), scale 0 to 10, 0 is no effect, 10 is complete control
[12] = Rate 500 g/ha, Pre-emergence section of Table B, 0 to 10 scale (0 no effect, 10 complete control)

In the case of `CC(C)N(C(=O)n1oc(=O)n(CC2=NOCCO2)c1=O)c1ccc(F)cc1F` [Compound 758], the “Plant response rating, Blackgrass” value (blackgrass; [1]) is reported as 3, the “Blackgrass plant response rating” value (blackgrass; [2]) is reported as 6 and the “Plant response rating, Blackgrass” value (blackgrass; [3]) is reported as 8. For the same compound, the “Blackgrass plant response rating” value (blackgrass; [4]) was 8, the “Blackgrass plant response rating” value (blackgrass; [5]) was 6 and the “Blackgrass plant response rating” value (blackgrass; [6]) was 6. The “Blackgrass plant response rating” value (blackgrass; [7]) was 6, the “Blackgrass plant response rating” value (blackgrass; [8]) was 9 and the “Plant response rating, B. signalgrass” value (surinam grass; [1]) was 4. The “B. signalgrass plant response rating” value (surinam grass; [2]) was 5, the “B. signalgrass plant response rating” value (surinam grass; Preemergence, Rate 62 g/ha, scale of 0 to 10 where 0 is no effect and 10 is complete control) was 6 and the “Plant response rating, B. signalgrass” value (surinam grass; [3]) was 6. The “B. signalgrass plant response rating” value (surinam grass; [4]) was 7, the “B. signalgrass plant response rating” value (surinam grass; [6]) was 6 and the “B. signalgrass plant response rating” value (surinam grass; [7]) was 7. The “B. signalgrass plant response rating” value (surinam grass; [8]) was 8, the “Plant response rating, Cocklebur” value (cocklebur; [1]) was 0 and the “Cocklebur plant response rating” value (cocklebur; [2]) was 0. The “Plant response rating, Cocklebur” value (cocklebur; [3]) was 0, the “Cocklebur plant response rating” value (cocklebur; [4]) was 0 and the “Cocklebur plant response rating” value (cocklebur; [5]) was 0. The “Cocklebur plant response rating” value (cocklebur; [6]) was 4, the “Cocklebur plant response rating” value (cocklebur; [7]) was 4 and the “Cocklebur plant response rating” value (cocklebur; [8]) was 0. The “Plant response rating, Corn” value (corn; [1]) was 0, the “Corn plant response rating” value (corn; [2]) was 0 and the “Plant response rating, Corn” value (corn; [3]) was 0. The “Corn plant response rating” value (corn; [5]) was 0, the “Corn plant response rating” value (corn; [6]) was 0 and the “Corn plant response rating” value (corn; [7]) was 3. The “Corn plant response rating” value (corn; [8]) was 3, the “Plant response rating, Crabgrass” value (crabgrass; [1]) was 2 and the “Crabgrass plant response rating” value (crabgrass; [2]) was 3. The “Plant response rating, Crabgrass” value (crabgrass; [3]) was 9, the “Crabgrass plant response rating” value (crabgrass; [4]) was 10 and the “Crabgrass plant response rating” value (crabgrass; [5]) was 9. The “Crabgrass plant response rating” value (crabgrass; [6]) was 8, the “Crabgrass plant response rating” value (crabgrass; [7]) was 9 and the “Crabgrass plant response rating” value (crabgrass; [8]) was 10. The “Plant response rating, Giant foxtail” value (giant foxtail; [1]) was 8, the “Giant foxtail plant response rating” value (giant foxtail; [2]) was 9 and the “Plant response rating, Giant foxtail” value (giant foxtail; [3]) was 9. For the same compound, the “Giant foxtail plant response rating” value (giant foxtail; [4]) was 10, the “Giant foxtail plant response rating” value (giant foxtail; [5]) was 9 and the “Giant foxtail plant response rating” value (giant foxtail; [6]) was 9. For the same compound, the “Giant foxtail plant response rating” value (giant foxtail; [7]) was 9, the “Giant foxtail plant response rating” value (giant foxtail; [8]) was 10 and the “Plant response rating, Morningglory” value (morningglory; [1]) was 2. For the same compound, the “Morningglory plant response rating” value (morningglory; [2]) was 4, the “Plant response rating, Morningglory” value (morningglory; [3]) was 0 and the “Morningglory plant response rating” value (morningglory; [4]) was 0. For the same compound, the “Morningglory plant response rating” value (morningglory; [5]) was 0, the “Morningglory plant response rating” value (morningglory; [6]) was 4 and the “Morningglory plant response rating” value (morningglory; [7]) was 8. The “Morningglory plant response rating” value (morningglory; [8]) was 0, the “Plant response rating, Rape” value (rape; [1]) was 0 and the “Rape plant response rating” value (rape; [2]) was 0. The “Plant response rating, Rape” value (rape; [3]) was 4, the “Rape plant response rating” value (rape; [4]) was 4 and the “Rape plant response rating” value (rape; [5]) was 0. For the same compound, the “Rape plant response rating” value (rape; [6]) was 0, the “Rape plant response rating” value (rape; [7]) was 2 and the “Rape plant response rating” value (rape; [8]) was 8. For the same compound, the “Plant response rating, Soybean” value (soybean; [1]) was 4, the “Plant response rating, Soybean” value (soybean; [3]) was 0 and the “Soybean plant response rating” value (soybean; [4]) was 0. The “Soybean plant response rating” value (soybean; [5]) was 0, the “Soybean plant response rating” value (soybean; [6]) was 5 and the “Soybean plant response rating” value (soybean; [7]) was 5. The “Soybean plant response rating” value (soybean; [8]) was 0, the “Plant response rating, Sugarbeets” value (sugar beet; [1]) was 0 and the “Plant response rating, Sugarbeets” value (sugar beet; [3]) was 7. The “Sugarbeets plant response rating” value (sugar beet; [4]) was 7, the “Sugarbeets plant response rating” value (sugar beet; [5]) was 5 and the “Sugarbeets plant response rating” value (sugar beet; [6]) was 3. For the same compound, the “Sugarbeets plant response rating” value (sugar beet; [7]) was 8, the “Sugarbeets plant response rating” value (sugar beet; [8]) was 8 and the “Plant response rating, Velvetleaf” value (velvetleaf; [1]) was 5. For the same compound, the “Plant response rating, Velvetleaf” value (velvetleaf; [3]) was 4, the “Velvetleaf plant response rating” value (velvetleaf; [4]) was 4 and the “Velvetleaf plant response rating” value (velvetleaf; [5]) was 2. For the same compound, the “Velvetleaf plant response rating” value (velvetleaf; [6]) was 6, the “Velvetleaf plant response rating” value (velvetleaf; [7]) was 7 and the “Velvetleaf plant response rating” value (velvetleaf; [8]) was 7. For the same compound, the “Plant response rating, Wheat” value (wheat; [1]) was 0, the “Plant response rating, Wheat” value (wheat; [3]) was 5 and the “Wheat plant response rating” value (wheat; [4]) was 5. For the same compound, the “Wheat plant response rating” value (wheat; [5]) was 4, the “Wheat plant response rating” value (wheat; [6]) was 5 and the “Wheat plant response rating” value (wheat; [7]) was 6. The “Wheat plant response rating” value (wheat; [8]) was 7, the “Plant response rating, Wild oats” value (wild oat; [1]) was 0 and the “Plant response rating, Wild oats” value (wild oat; [3]) was 8. The “Wild oats plant response rating” value (wild oat; [4]) was 8, the “Wild oats plant response rating” value (wild oat; [5]) was 5 and the “Wild oats plant response rating” value (wild oat; [6]) was 1. For the same compound, the “Wild oats plant response rating” value (wild oat; [7]) was 2, the “Wild oats plant response rating” value (wild oat; [8]) was 9 and the “Plant response rating, Nutsedge” value (purple nutsedge; [1]) was 0. For the same compound, the “Nutsedge plant response rating” value (purple nutsedge; [2]) was 0, the “Plant response rating, Nutsedge” value (purple nutsedge; [3]) was 0 and the “Nutsedge plant response rating” value (purple nutsedge; [4]) was 0. For the same compound, the “Nutsedge plant response rating” value (purple nutsedge; [5]) was 0, the “Nutsedge plant response rating” value (purple nutsedge; [6]) was 0 and the “Nutsedge plant response rating” value (purple nutsedge; [7]) was 0. For the same compound, the “S. Flatsedge plant response rating” value (smallflower flatsedge; [9]) was 0, the “S. Flatsedge plant response rating” value (smallflower flatsedge; [10]) was 0 and the “S. Flatsedge plant response rating” value (smallflower flatsedge; [11]) was 0. The “S. Flatsedge plant response rating” value (smallflower flatsedge; [12]) was 0, the “Ducksalad plant response rating” value (duck salad; [9]) was 0 and the “Ducksalad plant response rating” value (duck salad; [10]) was 0. The “Ducksalad plant response rating” value (duck salad; [11]) was 0 and the “Ducksalad plant response rating” value (duck salad; [12]) was 0.
